Molecules are shown by their SMILES.

Data set [1] can be described thus: Body weights and food consumption on rosiglitazone-supplemented diet (tolerability). It counts as in vivo, mouse. The source says: (§1) Male Tg2576 mice and non-transgenic littermates were purchased from Taconic Farms (Germantown, N.Y.). The Tg2576 mice overexpress the 695-isoform of the human amyloid precursor protein containing a double mutation originally identified in a large Swedish kindred (familial AD); spatial learning and memory deficits are evident at 9-11 months of age, prior to the formation of mature amyloid plaques (Kawarabayashi et al., “Age-Dependent Changes in Brain, CSF, and Plasma Amyloid β Protein in the Tg2576 Transgenic Mouse Model of Alzheimer's Disease,” J. Neurosci., 21:372-381 (2001) and Westerman et al., “The Relationship Between Aβ and Memory in the Tg2576 Mouse Model of Alzheimer's Disease.,” J. Neurosci., 22:1858-1867 (2002), which are hereby incorporated by reference). Mice were individually housed in ventilated microisolator cages.
The following supplemented diet was used. Tablets of rosiglitazone maleate (Avandia™, GlaxoSmithKline) were provided by the Creighton University Diabetes Center. The tablets were pulverized and mixed with the AIN-93G purified rodent diet at a final dose of 30 mg/kg of food (Dyets, Inc.). This dose was chosen based on the results of studies in rats using a diet supplemented with rosiglitazone (Diep et al., “Structure, Endothelial Function, Cell Growth, and Inflammation in Blood Vessels of Angiotensin II-Infused Rats: Role of Peroxisome Proliferator-Activated Receptor-γ,” Circulation, 105:2296-2302 (2002), which is hereby incorporated by reference. Unmodified AIN-93G pellets were purchased as the control diet (Dyets, Inc.). The mice were placed on the diets at 9 months of age.
To provide evidence for a relationship between insulin resistance and aberrant stress responses of Tg2576 mice, the animals were subjected to a diet containing the thiazolidinedione, rosiglitazone, in order to increase insulin sensitivity. The thiazolidinediones act as agonists of peroxisome proliferator-activated receptor-γ (“PPARγ”), which is a ligand-inducible transcription factor that regulates glucose and lipid metabolism (Desvergne et al., “Peroxisome Proliferator-Activated Receptors: Nuclear Control of Metabolism,” Endocr. Rev., 20:649-688 (1999), which is hereby incorporated by reference). The agonists of PPARγ attenuate insulin resistance by improving peripheral insulin sensitivity, and such agonists are currently being used clinically in the management of type 2 diabetes (Wagstaff et al., “Rosiglitazone: A Review of its Use in the Management of Type 2 Diabetes Mellitus,” Drugs 62:1805-1837 (2002), which is hereby incorporated by reference). […] More particularly, the following Table 1 summarizes body weights and food consumption for wild-type mice on the regular diet (Wt; n=7), Tg2576 mice on the diet supplemented with rosiglitazone maleate (Tr, AV; n=7), and for Tg2576 mice on the regular diet (Tr, C; n=5). Data are reported as means and standard deviations for the indicated weeks.

For data set [2], the system named is Tg2576 mice. As to the kind of experiment: Stress response: serum corticosterone after overnight fasting. It counts as in vivo, mouse. The note with it: FIG. 5.
Source text: as §1
Corticosterone and insulin were measured using the following procedures. For serum preparation, tail bleedings were carried out under a heating lamp, and the blood was collected into MICROTAINER™ Brand Tubes (Becton Dickinson, Franklin Lanes, N.J.). After allowing the blood to clot for 30-40 min, samples were centrifuged for 90 sec at 6000 g and stored at −80° C. until use. Serum corticosterone levels were measured using an enzyme immunoassay kit (Assay Designs, Inc., Ann Arbor, Mich.) with a 1 μl aliquot of each sample diluted 1:100 with assay buffer. The sensitivity of the assay was 26.99 pg/ml. Serum insulin levels were determined using the Ultra Sensitive Rat Insulin ELISA kit (Crystal Chem, Inc., Downers Grove, Ill.) using 5 μl of undiluted sample and mouse insulin standard. The sensitivity of the assay under these conditions was 100 pg/ml. All samples were measured in duplicate for both assays. Plates were read using the Bio-Tek ELx800UV Universal Microplate Reader.
The following supplemented diet was used. Tablets of rosiglitazone maleate (Avandia™, GlaxoSmithKline) were provided by the Creighton University Diabetes Center. […]

Data set [3] relates to Tg2576 mice. The data set is classed as in vivo.
Source text: as §1
The following supplemented diet was used. Tablets of rosiglitazone maleate (Avandia™, GlaxoSmithKline) were provided by the Creighton University Diabetes Center. The tablets were pulverized and mixed with the AIN-93G purified rodent diet at a final dose of 30 mg/kg of food (Dyets, Inc.). […]

Data set [4] deals with Tg2576 mice. As to the kind of experiment: Spatial learning and memory, 8-arm radial maze. The note with it: 15 weeks on drug-supplemented diet, approximately 4 mg/kg/day, FIG. 6.
Data set [5] deals with Tg2576 mice. As to the kind of experiment: Insulin response: insulin-induced decline in blood glucose levels. It counts as in vivo, mouse.
Source text: as §1
Insulin was administered and glucose was measured using the following procedures. A stock of human insulin (recombinant, 28.7 U.S.P. units/mg; Sigma) was prepared by dissolving 1 mg of powder in 1 ml of dH20 containing 1% glacial acetic acid. A 1:150 dilution in dH20 was used as the injection stock. Mice were administered the insulin solution by intraperitoneal injection. […]
Insulin was administered to non-fasted Tg2576 and wild-type mice at 0.75 U/kg, and blood glucose levels were monitored. […]

Where [6] appears, read: 10-month-old Tg2576 mice, supplemented diet 4 weeks.

`CN(CCOc1ccc(CC2SC(=O)NC2=O)cc1)c1ccccn1.O=C(O)/C=C\C(=O)O` (centres unmarked) [rosiglitazone, rosiglitazone maleate]: in data set [1] (mice, diet 30 mg/kg of food), the “Tolerability of the diet containing rosiglitazone” value was “well tolerated”. For the same molecule, in data set [1] (mouse, in vivo), the “Amount of rosiglitazone-supplemented food consumed over time” value is on record as “decreased over time”; the “Weight of mice, Week 1” value is 26.3 ± 3.2 g; the “Weight of mice, Week 4” value worked out at 26.2 ± 3.1 g; the “Weight of mice, Week 7” value was 27.1 ± 3.3 g. In addition, in the data set on Tg2576 mice [2] (setting [6]), the “Serum corticosterone levels after overnight fasting versus wild-type mice” value was “not significantly different” and the “Serum corticosterone levels following overnight fasting versus Tg2576 mice on regular diet” value is “well below the levels reached in Tg2576 mice on the regular diet”. Moreover, in the data set on Tg2576 mice [2] (Tg2576 mice), the “Effect on stress response (figure legend)” value is listed as “normalizes the stress response”. For the same molecule, the “Deaths in the course of the study” value in the data set with Tg2576 mice [3] (7 Tg2576 mice on rosiglitazone-supplemented diet (2 of 7 on unsupplemented diet died)) was “None”. Further, in the data set on Tg2576 mice [3] (Tg2576 mice on rosiglitazone-supplemented diet), the “Observed behaviour on handling” value is “calmer and easier to handle”. Moreover, in the data set with Tg2576 mice [4], the “Number of reference memory errors versus control Tg2576 mice (Tr,C)” value is “fewer than the number of reference memory errors made by Tg2576 not given the drug” and the “Number of reference memory errors versus wild-type mice” value is given as “as many reference memory errors as the wild-type mice”. Further, the “Insulin response of Tg2576 mice on unsupplemented diet versus Tg2576 mice on supplemented diet” value in the data set with Tg2576 mice [5] (10-month-old Tg2576 mice, 4 weeks on diet, insulin 0.75 U/kg) is given as “much weaker insulin response”. The “Effect on insulin response (figure legend)” value with Tg2576 mice [5] (FIGS. 4A and 4B, Tg2576 mice, supplemented diet for 4 weeks) is “normalizes the insulin response”.

(Values after patent US20050004179A1, “Methods and materials for treating, detecting, and reducing the risk of developing Alzheimer's Disease” (priority 2003, published 2005).)
